Experiments:
TrkB phosphorylation = experiment: Western blot of TrkB phosphorylation in rat primary cortico-striatal co-cultures; assay type: cell-based; conditions: 15 minutes; non-transfected; Figure 7B, C
Excerpt: (§1) Clarified cell lysates were resolved by SDS-PAGE, blotted onto nitrocellulose membranes and immunoprobed with the relevant primary and secondary antibody combinations. Anti-pTrkB Tyr^516 (4619), anti-pTrkB Tyr^706/707 (4621), anti-pTrkB, Tyr^816 (4168), anti-pERK1/2 […], anti-pAKT […], anti-TrkB (4603), anti-AKT (4685) and anti-ERK1/2 (4695) were sourced from Cell Signalling Technologies. Anti-GAPDH (IMG-5143A) was obtained from Imgenex; Goat anti-rabbit HRP conjugate (PO448) and Goat anti-mouse HRP conjugate (PO447) were sourced from Dako. Goat anti-mouse 800CW conjugate and Goat anti-rabbit 680 conjugate were sourced from LI-COR. Immunoreactive signals were detected using enhanced chemiluminescence reagent (Amersham) or using the Odyssey infra-red reader.

[1] = Solubility assay under CellSensor assay conditions (HPLC-UV); assay type: physicochemical; conditions: for Concentration @ t = 0: 0 hours; for Concentration @ t = 0 / Concentration @ t = 3 / Concentration @ t = 7: assay buffer, 0.5% DMSO; for Concentration @ t = 3: 3 hours; for Concentration @ t = 7: 7 hours
Method: To align with the functional data, all compound samples and dilutions were prepared using the CellSensor® assay conditions that include: assay buffer, plates, sample volumes and the same timeframe. The assay incubation time was 7 hours. 0, 3 and 7 hour samples were analysed, in triplicate, in the final assay buffer (DMEM/Glutamax + NEAA + 20 mM Hepes pH7.4 + 0.01% BSA, final DMSO concentration 0.5%) at nominal compound concentrations of 5, 20 and 50 µM. […] The 7 and 3 hour samples were prepared at times which allowed simultaneous filtering and sample analysis.

[2] = tested on: Hippocampal HT-22 (TrkB-null cell line); parameters: method as in PMID 21651962; conditions: cited from earlier work
TrkB [3] = molecular target: T1, TrkB (Homo sapiens, UniProt Q16620); parameters: host or cells: CHO-K1; conditions: cited from earlier work
striatal neurons = experiment: Primary neuronal mHTT-induced cell death assay (cortico-striatal co-culture); assay type: cell-based, rat
Excerpt: Cortical and striatal neurons were isolated from E18 rat embryos and separately transfected with a HTT exon1 fragment containing 73 CAG repeats (HTTN90Q73), together with a plasmid encoding for either a green AcGFP or a red AsRed fluorescent reporter before being plated on glial cells and treated with candidate pharmacological agents. After 5 days in culture, the number of fluorescent cells remaining was counted using an automated high content imaging and analysis platform (GE Healthcare InCell 2000) and any changes in neuronal survival quantified.

TrkB [4] = molecular target: T1, TrkB; experiment: CellSensor TrkB-NFAT-bla CHO-K1 reporter gene assay (agonist, antagonist, PAM modes); assay type: cell-based; parameters: host or cells: CHO-K1
Method: The assays were configured using Invitrogen CHO-K1 cell lines stably expressing a β-lactamase gene under the control of a NFAT promoter region and the relevant Trk (A, B or C) receptor (except for the Trk null cell line). The activity of the β-lactamase enzyme was quantified via FRET with a fluorescent substrate containing a β-lactam ring, according to manufacturer’s provided protocol. All CellSensor® NFAT-bla CHO-K1 cell lines were seeded into black 384w assay plates in CellSensor® plating media (growth media without antibiotics) at 5,000 cells in a volume of 25 µL per well; cells were incubated at 37°C, 5% CO2 overnight. Then, the assay plating media was removed and replaced with 32 µL of assay media (plating media without serum) and returned to the incubator for 1 hour. […] Test compounds were added (4 µL) and cells were returned to the incubator for 1 hour; dependent on assay mode (agonist, antagonist or positive allosteric modulator) assay media alone (agonist mode), assay media containing EC80 neurotrophin (antagonist mode) or assay media containing EC20 neurotrophin (PAM mode) were then added to the cells (4 µL) for a further 4 hour incubation. ToxBLAzer detection reagent was reconstituted according to the manufacturer’s instructions and 8 µL/well added to the assay plates, these were then incubated at room temperature protected from light for 2 hours. Levels of β-lactamase activity were then quantified by measuring the fluorescent intensity ratio between ^EX400nm/^EM535nm and ^EX400nm/^EM460nm and cytotoxicity quantified by measuring the fluorescence intensity at ^EX590nm/^EM665nm using a Perkin Elmer EnVision.

TrkB [5] = molecular target: T1, TrkB; parameters: method as in PMID 19549602; conditions: hippocampal neurons; cited from earlier work
[6] = tested on: TrkB, AKT and ERK1/2 phosphorylation; experiment: Western blot of TrkB, AKT and ERK1/2 phosphorylation in TrkB-NFAT-bla CHO-K1 cells; assay type: cell-based; conditions: Figure 6E; for Basal phospho-ERK1/2 immunoreactive bands: LM22A-4 at low (10 µM) and high (83 µM), N-acetyl serotonin at high (83 µM) concentration
Excerpt: as §1

TrkB [7] = tested on: TrkB; parameters: method as in PMID 20407211; conditions: hippocampal neurons; cited from earlier work
[8] = tested on: Trk null-NFAT-bla CHO-K1 cells; experiment: CellSensor Trk null-NFAT-bla CHO-K1 reporter gene assay; assay type: cell-based; conditions: Cricetulus griseus, Figure 2D, 5 hours
Method: The assays were configured using Invitrogen CHO-K1 cell lines stably expressing a β-lactamase gene under the control of a NFAT promoter region and the relevant Trk (A, B or C) receptor (except for the Trk null cell line). The activity of the β-lactamase enzyme was quantified via FRET with a fluorescent substrate containing a β-lactam ring, according to manufacturer’s provided protocol. All CellSensor® NFAT-bla CHO-K1 cell lines were seeded into black 384w assay plates in CellSensor® plating media (growth media without antibiotics) at 5,000 cells in a volume of 25 µL per well; cells were incubated at 37°C, 5% CO2 overnight. Then, the assay plating media was removed and replaced with 32 µL of assay media (plating media without serum) and returned to the incubator for 1 hour. […] Levels of β-lactamase activity were then quantified by measuring the fluorescent intensity ratio between ^EX400nm/^EM535nm and ^EX400nm/^EM460nm and cytotoxicity quantified by measuring the fluorescence intensity at ^EX590nm/^EM665nm using a Perkin Elmer EnVision.

TrkB [9] = molecular target: T1, TrkB; experiment: DiscoveRx PathHunter U2OS TrkB enzyme fragment complementation (EFC) assay; assay type: cell-based; conditions: Figure 6C; read-out: BDNF potency (EC50), PathHunter EFC, agonist mode
Excerpt: The assay was configured using DiscoveRx PathHunter® U2OS cell line stably co-expressing two cDNAs: a ProLink™ (PK) tagged TrkB receptor and an Enzyme Acceptor (EA) tagged SH2 domain. Activation of the TrkB-PK receptor induces receptor dimerization and trans-phosphorylation, leading to SH2-EA recruitment, and thereby forcing complementation of the two β-galactosidase enzyme fragments (EA and PK). The resulting functional enzyme hydrolyzes substrate to generate a chemiluminescent signal. U2OS-TrkB PathHunter® cells were seeded into white 384w assay plates in plating media (1x MEM; 0.5% v/v horse serum) at 10,000 cells in a volume of 20 µL per well, cells were incubated at 37°C, 5% CO2 overnight to adhere to assay plates. Test compounds were added (5 µL) to the cells and the plates were returned to the incubator for 1 hour; dependent on assay mode (agonist, antagonist or positive allosteric modulator) assay media alone (agonist mode), assay media containing EC80 BDNF (antagonist mode) or assay media containing EC20 BDNF (PAM mode) were then added to the cells (5 µL) for a further 4 hour incubation at room temperature. PathHunter® detection reagent was then added (15 µL/well) and incubated at room temperature protected from light for 1 hour. Levels of β-galactosidase activity were then quantified by measuring the chemiluminescent signal obtained using a Perkin Elmer EnVision.

T1 sequence (Q16620 32-822): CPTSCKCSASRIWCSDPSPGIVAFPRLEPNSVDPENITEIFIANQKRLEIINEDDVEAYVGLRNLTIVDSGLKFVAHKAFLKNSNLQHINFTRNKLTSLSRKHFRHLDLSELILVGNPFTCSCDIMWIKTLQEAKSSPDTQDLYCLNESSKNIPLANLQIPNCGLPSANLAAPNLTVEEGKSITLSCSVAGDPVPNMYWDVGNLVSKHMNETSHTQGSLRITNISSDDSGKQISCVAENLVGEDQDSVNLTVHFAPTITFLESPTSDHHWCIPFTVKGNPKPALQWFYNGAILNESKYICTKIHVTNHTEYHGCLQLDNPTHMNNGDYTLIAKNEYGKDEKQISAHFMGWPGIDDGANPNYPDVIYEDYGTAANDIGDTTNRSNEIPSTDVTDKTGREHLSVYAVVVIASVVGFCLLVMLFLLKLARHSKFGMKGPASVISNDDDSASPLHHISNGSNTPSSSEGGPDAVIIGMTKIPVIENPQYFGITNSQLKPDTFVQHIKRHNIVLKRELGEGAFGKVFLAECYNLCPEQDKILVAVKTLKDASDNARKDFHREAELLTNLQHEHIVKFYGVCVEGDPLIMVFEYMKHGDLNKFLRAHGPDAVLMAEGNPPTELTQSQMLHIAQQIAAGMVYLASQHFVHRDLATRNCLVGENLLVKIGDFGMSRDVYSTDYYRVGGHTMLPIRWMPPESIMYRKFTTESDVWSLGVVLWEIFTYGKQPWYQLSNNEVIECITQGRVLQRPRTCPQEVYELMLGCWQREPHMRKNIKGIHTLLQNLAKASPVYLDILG

Row | Concentration @ t = 0 ([1]; nominal concentration 5 µM) [µM] | Concentration @ t = 3 ([1]; nominal concentration 5 µM) [µM] | Concentration @ t = 7 ([1]; nominal concentration 5 µM) [µM] | Concentration @ t = 0 ([1]; nominal concentration 20 µM) [µM] | Concentration @ t = 3 ([1]; nominal concentration 20 µM) [µM] | Concentration @ t = 7 ([1]; nominal concentration 20 µM) [µM] | Concentration @ t = 0 ([1]; nominal concentration 50 µM) [µM] | Concentration @ t = 3 ([1]; nominal concentration 50 µM) [µM] | Concentration @ t = 7 ([1]; nominal concentration 50 µM) [µM] | Molecule | Published in vitro activity (in words) (TrkB [3]) | Published in vitro activity: Activity (TrkB [3]) [nM] | other results
1 | 0.49 | 0.24 | 2.3 | 3.0 | 1.9 | 5.2 | 13 | 10 | 13 | O=c1cc(-c2ccccc2)oc2c(O)c(O)ccc12 [7,8-dihydroxyflavone] | Neuronal TrkB agonist; Promotes neurogenesis | 10 to 250 | Induction of TrkB phosphorylation (in words) (TrkB phosphorylation): failed to mimic the ability of BDNF; Compound remaining in solution ([1]; beyond the tested lower concentration of 5 µM, NFAT assay solutions): ~20%; Concentrations showing toxicity effects, HT-22 cell viability [2]: above 20 µM; Protection of striatal neurons from mHTT-induced cell death (in words) (striatal neurons; Figure 7A): failed to mimic the ability of BDNF; Concentrations at which toxicity was evident (striatal neurons; rat cortico-striatal co-culture): ≥ 20 µM
2 | 3.7 | 4.3 | 3.2 | 7.6 | 7.1 | 5.9 | 33 | 27 | 27 | CN(C)CCC=C1c2ccccc2CCc2ccccc21 [Amitriptyline] | Neuronal TrkA/B agonist; Neuroprotective | 10 to 250 | PAM activity, NFAT reporter gene assay, PAM mode (in words) (TrkB [4]; Figure 6B, in presence of ~EC20 BDNF (40 pM)): concentration-dependent TrkB inhibition; Potency relative to the cognate neurotrophin (less potent) (TrkB [5]): ~100 fold
3 | 7.2 | 7.8 | 11 | 17 | 17 | 20 | 59 | 58 | 64 | O=C(NCCO)c1cc(C(=O)NCCO)cc(C(=O)NCCO)c1 [LM22A-4] | TrkB agonist; Neuroprotective | 0.5 to 500 | Induction of TrkB phosphorylation (in words) (TrkB phosphorylation): failed to mimic the ability of BDNF; Basal phospho-ERK1/2 immunoreactive bands [6]: absence of immunoreactive bands; Induction of TrkB-Tyr516 phosphorylation (TrkB [7]): ~30 % of the efficacy of BDNF; Protection of striatal neurons from mHTT-induced cell death (in words) (striatal neurons; Figure 7A): failed to mimic the ability of BDNF
4 | 7.6 | 8.8 | 10 | 13 | 14 | 17 | 38 | 44 | 49 | CC(=O)NCCc1c[nH]c2ccc(O)cc12 [N-acetyl serotonin] | Neuronal TrkB agonist | 100 | Basal phospho-ERK1/2 immunoreactive bands [6]: absence of immunoreactive bands
5 | 2.8 | 3.0 | 3.7 | 3.4 | 2.9 | 4.5 | 6.7 | 4.5 | 6.9 | COC(=O)[C@H]1[C@H]2C[C@@H]3c4[nH]c5cc(OC)ccc5c4CCN3C[C@H]2C[C@@H](OC(=O)c2cc(OC)c(OC)c(OC)c2)[C@@H]1OC [Reserpine] | – | – | –
6 | – | – | – | – | – | – | – | – | – | C/C=C(/C)C(=O)O[C@H]1C(C)=C2[C@H]([C@@H]1OC(=O)CCCCCCC)[C@@](C)(OC(C)=O)C[C@H](OC(=O)CCC)[C@@]1(O)[C@H]2OC(=O)[C@@]1(C)O [Thapsigargin] | – | – | EC50 [8]: 1.6 nM
7 | – | – | – | – | – | – | – | – | – | COc1ccc(C(=O)c2cn(C(C)C)c3ncnc(N)c23)cc1NC(=O)Nc1ccc(Cl)cc1Cl [pan-Trk kinase inhibitor, 1-(5-(4-amino-7-isopropyl-7H-pyrrolo[2,3-d]pyrimidine-5-carbonyl)-2-methoxyphenyl)-3-(2,4-dichlorophenyl)urea] | – | – | Effect on induction of NFAT activity by TrkB mAbs (TrkB [4]; co-incubation, pan-Trk inhibitor 100 nM): completely prevented; Effect on antibody effects in striatal neurons (striatal neurons; data not shown): reversed
8 | – | – | – | – | – | – | – | – | – | Brain-derived neurotrophic factor (protein, UniProt P23560 19-247, looked up, Neuroprotective secreted protein, cognate neurotrophin of TrkB) Neurotrophic factor BDNF …: APMKEANIRGQGGLAYPGVRTHGTLESVNGPKAGSRGLTSLADTFEHVIEELLDEDQKVRPNEENNKDADLYTSRVMLSSQVPLEPPLLFLLEEYKNYLDAANMSMRVRRHSDPARRGELSVCDSISEWVTAADKKTAVDMSGGTVTVLEKVPVSKGQLKQYFYETKCNPMGYTKEGCRGIDKRHWNSQCRTTQSYVRALTMDSKKRIGWRFIRIDTSCVCTLTIKRGR | – | – | TrkB, ERK1/2 and AKT phosphorylation (pathway activation) ([6]; 5 hours treatment): induced phosphorylation of TrkB, ERK1/2 and AKT; EC50 (TrkB [4]; Figure 4A, 5 hours, read-out: EC50, TrkB-NFAT-bla reporter, agonist mode): 0.145 nM; EC50 (TrkB [4]; Figure 6A, read-out: BDNF potency (EC50), CellSensor NFAT reporter, agonist mode): 0.323 nM; EC50 (TrkB [9]): 0.823 nM; EC50 (striatal neurons; Figure 7A, normalized to 1 nM BDNF (100% Rescue) and vehicle (0%), read-out: EC50, % Rescue of striatal neurons from mHTT-induced cell death): 0.214 nM
